This assay has as its target T1, ITK (Homo sapiens, UniProt Q08881).
T1 construct: Compounds provided herein were assayed in vitro with ITK HiBit cell lines; endogenous in cells; host or cells: Molt4 (ATCC CRL-1552 [sic]), monoclonal clone 1C10
T1 sequence (Q08881 1-620): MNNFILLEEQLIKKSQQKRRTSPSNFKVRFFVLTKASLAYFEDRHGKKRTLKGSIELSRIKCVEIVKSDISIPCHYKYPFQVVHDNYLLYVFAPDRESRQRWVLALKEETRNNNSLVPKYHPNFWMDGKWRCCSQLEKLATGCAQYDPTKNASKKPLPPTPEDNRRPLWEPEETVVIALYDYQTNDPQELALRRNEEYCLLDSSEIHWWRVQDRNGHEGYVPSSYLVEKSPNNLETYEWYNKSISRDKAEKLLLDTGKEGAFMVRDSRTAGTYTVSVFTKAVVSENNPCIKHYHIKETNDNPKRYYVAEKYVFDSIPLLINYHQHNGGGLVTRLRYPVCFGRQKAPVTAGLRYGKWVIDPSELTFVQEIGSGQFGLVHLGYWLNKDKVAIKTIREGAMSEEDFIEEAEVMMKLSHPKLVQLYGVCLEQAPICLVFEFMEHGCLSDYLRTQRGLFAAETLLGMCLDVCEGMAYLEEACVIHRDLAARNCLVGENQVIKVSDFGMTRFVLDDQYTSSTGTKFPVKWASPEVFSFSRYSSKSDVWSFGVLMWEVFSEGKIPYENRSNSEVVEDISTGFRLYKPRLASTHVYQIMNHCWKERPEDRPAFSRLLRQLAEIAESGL
The experiment in a line: ITK Degradation HiBiT Assay. The format is cell-based. On the procedure:
Compounds provided herein were assayed in vitro with ITK HiBit cell lines. Compound dilution series (11-point, 5 fold dilutions in DMSO, columns 2-12 with replicate in rows A/B, C/D, E/F, G, H at 2000× the final required concentrations were prepared in 96 well plate (Falcon, cat. no. 353077). Column 1, rows A-H were control DMSO. The 2000× solutions ranged from 2 mM to 1.024 nM (final assay concentration range 1 μM to […]). The 2000× solutions were added to cells in […], for a final DMSO concentration of 0.5% and final assay compound concentration of 1×. For the cells, C-terminal HiBiT-tagged Molt4 cells (ATCC CRL-1552, monoclonal cell line clone 1C10) were plated at 1×10^6 cells/mL, 100 μL/well ([…]) in complete RPMI (10% FBS, 1% L-glutamine). The cells were incubated with compound 32 and compound 30 for 4 hrs at 32° C./6% CO2.
Following incubation, 100 μL of complete Nano-Glo HiBiT Lytic Detection Reagent (Nano-Glo HiBiT Lytic Buffer with 1:50 Nano-Glo HiBiT Lytic Substrate and 1:100 LgBiT Protein; Promega cat. no. N3O40) was added. Cells were further incubated for 10 min at room temperature (RT). Luminescence units (LU) were read on an EnVision plate reader (Perkin Elmer, 0.1 sec per well). Percent ITK remaining per sample was calculated as follows: […]
Using Graphpad Prism, % ITK remaining values were plotted as a function of compound concentration. To determine DC50 and Dmax values, resulting curves were fit to the Prism curve-fitting equation “log(inhibitor) vs response−Variable slope (four parameters)” (reported best fit value IC50 used as DC50). ITK was measured with antibody-based MSD (Meso-Scale Discovery) assays shown below.
Background: HiBiT is a short tag that completes a luciferase, so light tracks the accessible tagged protein.

[1] abbreviates: MOLT-4, C-terminal HiBiT-tagged Molt4 cells, 4 hrs incubation, read-out: HiBiT DMax (%).
Where [2] appears, read: C-terminal HiBiT-tagged Molt4 cells, 4 hrs incubation.

Structures are written as SMILES. Where two headings read alike, the source gives them in different places.

Broadly, the Dmax is the greatest extent of degradation seen. Consider `CN(C(=O)CCC1CCN(c2ccc(C3CCC(=O)NC3=O)cn2)CC1)c1ccc2cc(-c3n[nH]c4c3C[C@@H]3C(F)(F)[C@]3(C)C4)[nH]c2c1` (stereo partly drawn) [Compound 4, N-(2-((4aS,5aR)-5,5-difluoro-5a-methyl-1,4,4a,5,5a,6-hexahydrocyclopropa[f]indazol-3-yl)-1H-indol-6-yl)-3-(1-(5-(2,6-dioxopiperidin-3-yl)pyridin-2-yl)piperidin-4-yl)-N-methylpropanamide], for which the Dmax under setting [1] was found to be 82%.

For the molecule `CN(C(=O)CC1CCN(CC2CCN(c3ccc(C4CCC(=O)NC4=O)cn3)CC2)CC1)c1ccc2cc(-c3n[nH]c4c3C[C@@H]3C(F)(F)[C@]3(C)C4)[nH]c2c1` (stereo partly drawn) [Compound 6, N-(2-((4aS,5aR)-5,5-difluoro-5a-methyl-1,4,4a,5,5a,6-hexahydrocyclopropa[f]indazol-3-yl)-1H-indol-6-yl)-2-(1-((1-(5-(2,6-dioxopiperidin-3-yl)pyridin-2-yl)piperidin-4-yl)methyl)piperidin-4-yl)-N-methylacetamide], the Dmax under setting [1] turned out to be 85%.

As to `C[C@@]12Cc3[nH]nc(C(=O)Nc4cnn(CC5CN(C(=O)C6CCN(c7ccc(C8CCC(=O)NC8=O)cn7)CC6)C5)c4)c3C[C@@H]1C2(F)F` (stereo partly drawn) [Compound 22, (4aS,5aR)—N-(1-((1-(1-(5-(2,6-dioxopiperidin-3-yl)pyridin-2-yl)piperidine-4-carbonyl)azetidin-3-yl)methyl)-1H-pyrazol-4-yl)-5,5-difluoro-5a-methyl-1,4,4a,5,5a,6-hexahydrocyclopropa[f]indazole-3-carboxamide], under setting [1], the Dmax came out at 90%.

For `C[C@@]12Cc3[nH]nc(C(=O)Nc4cnn(CC5CN(C(=O)C6CN(c7ccc(C8CCC(=O)NC8=O)cn7)C6)C5)c4)c3C[C@@H]1C2(F)F` (stereo partly drawn) [Compound 23, (4aS,5aR)—N-(1-((1-(1-(5-(2,6-dioxopiperidin-3-yl)pyridin-2-yl)azetidine-3-carbonyl)azetidin-3-yl)methyl)-1H-pyrazol-4-yl)-5,5-difluoro-5a-methyl-1,4,4a,5,5a,6-hexahydrocyclopropa[f]indazole-3-carboxamide], the Dmax under setting [1] was 85%.

The DC50 is the concentration giving 50% degradation. Low readings indicate a more potent degrader, high ones a less potent degrader. Turning to `CC1(C)CCc2c(-c3cc4ccc(N5CCC6(CCN(CC7CCN(c8ccc(C9CCC(=O)NC9=O)cn8)CC7)CC6)C5=O)cc4[nH]3)n[nH]c2C1` (centres unmarked) [Compound 24, 3-(6-(4-((2-(2-(6,6-dimethyl-4,5,6,7-tetrahydro-1H-indazol-3-yl)-1H-indol-6-yl)-1-oxo-2,8-diazaspiro[4.5]decan-8-yl)methyl)piperidin-1-yl)pyridin-3-yl)piperidine-2,6-dione], it took 0.6 nM to reach half-maximal degradation under setting [2] (DC50). The Dmax under setting [1] came out at 92%.

With `CC1(C)CCc2c(-c3cc4ccc(C(=O)N5CCN(CC6CCN(c7ccc(C8CCC(=O)NC8=O)cn7)CC6)CC5)cc4[nH]3)n[nH]c2C1` (centres unmarked) [Compound 26, 3-(6-(4-((4-(2-(6,6-dimethyl-4,5,6,7-tetrahydro-1H-indazol-3-yl)-1H-indole-6-carbonyl)piperazin-1-yl)methyl)piperidin-1-yl)pyridin-3-yl)piperidine-2,6-dione], the Dmax under setting [1] was determined as 87%.

For `C[C@@]12Cc3[nH]nc(-c4cc5ccc(N6CCC7(CCN(CC8CCN(c9ccc(C%10CCC(=O)NC%10=O)cn9)CC8)CC7)C6=O)cc5[nH]4)c3C[C@@H]1C2(F)F` (stereo partly drawn) [Compound 28, 3-(6-(4-((2-(2-((4aS,5aR)-5,5-difluoro-5a-methyl-1,4,4a,5,5a,6-hexahydrocyclopropa[f]indazol-3-yl)-1H-indol-6-yl)-1-oxo-2,8-diazaspiro[4.5]decan-8-yl)methyl)piperidin-1-yl)pyridin-3-yl)piperidine-2,6-dione], the Dmax under setting [1] is 91%.

On to `C[C@@H](C(=O)N(C)c1ccc2cc(-c3n[nH]c4c3C[C@@H]3C(F)(F)[C@]3(C)C4)[nH]c2c1)N1CCN(CC2CCN(c3ccc(N4CCC(=O)NC4=O)cn3)CC2)CC1` [Compound 29, (S)—N-(2-((4aS,5aR)-5,5-difluoro-5a-methyl-1,4,4a,5,5a,6-hexahydrocyclopropa[f]indazol-3-yl)-1H-indol-6-yl)-2-(4-((1-(5-(2,4-dioxotetrahydropyrimidin-1(2H)-yl)pyridin-2-yl)piperidin-4-yl)methyl)piperazin-1-yl)-N-methylpropanamide], for which the maximal degradation (Dmax) under setting [1] came out at 76%.

Turning to `C[C@@H](C(=O)N(C)c1ccc2cc(-c3n[nH]c4c3CCC(C)(C)C4)[nH]c2c1)N1CCN(CC2CCN(c3ccc(N4CCC(=O)NC4=O)cn3)CC2)CC1` [Compound 31, (S)—N-(2-(6,6-dimethyl-4,5,6,7-tetrahydro-1H-indazol-3-yl)-1H-indol-6-yl)-2-(4-((1-(5-(2,4-dioxotetrahydropyrimidin-1(2H)-yl)pyridin-2-yl)piperidin-4-yl)methyl)piperazin-1-yl)-N-methylpropanamide], the Dmax under setting [1] was 84%.

On to `C[C@@H](C(=O)N(C)c1ccc2cc(-c3n[nH]c4c3CCC(C)(C)C4)[nH]c2c1)N1CCN(CC2CCN(c3ccc(C4CCC(=O)NC4=O)cn3)CC2)CC1` (stereo partly drawn) [Compound 32, (2S)—N-(2-(6,6-dimethyl-4,5,6,7-tetrahydro-1H-indazol-3-yl)-1H-indol-6-yl)-2-(4-((1-(5-(2,6-dioxopiperidin-3-yl)pyridin-2-yl)piperidin-4-yl)methyl)piperazin-1-yl)-N-methylpropanamide], for which the Dmax runs as follows: (ITK degradation in HiBiT cell line, FIG. 1, read-out: Dmax values (FIG. 1)) 90 to 100%; under setting [1], 89%.

Consider `CC1(C)CCc2c(-c3cc4ccc(C(=O)N5CCC(CN6CCN(c7ccc(C8CCC(=O)NC8=O)nc7)CC6)CC5)cc4[nH]3)n[nH]c2C1` (centres unmarked) [Compound 35, 3-(5-(4-((1-(2-(6,6-dimethyl-4,5,6,7-tetrahydro-1H-indazol-3-yl)-1H-indole-6-carbonyl)piperidin-4-yl)methyl)piperazin-1-yl)pyridin-2-yl)piperidine-2,6-dione], for which, under setting [2], the half-maximal degradation concentration (DC50) was < 0.01 nM. For the same molecule, under setting [1], the Dmax was 86%.

Under setting [2], `CC1(C)CCc2c(-c3cc4ccc(C(=O)N5CCC(CN6CCN(c7ccc(C8CCC(=O)NC8=O)cc7)CC6)CC5)cc4[nH]3)n[nH]c2C1` (centres unmarked) [Compound 37, 3-(4-(4-((1-(2-(6,6-dimethyl-4,5,6,7-tetrahydro-1H-indazol-3-yl)-1H-indole-6-carbonyl)piperidin-4-yl)methyl)piperazin-1-yl)phenyl)piperidine-2,6-dione] showed a DC50 of 2.6 nM. For the same molecule, the Dmax under setting [1] stood at 79%.

With `CC1(C)CCc2c(-c3cc4ccc(C(=O)N5CCN(CC6CCN(c7ccc(C8CCC(=O)NC8=O)cc7)CC6)CC5)cc4[nH]3)n[nH]c2C1` (centres unmarked) [Compound 38, 3-(4-(4-((4-(2-(6,6-dimethyl-4,5,6,7-tetrahydro-1H-indazol-3-yl)-1H-indole-6-carbonyl)piperazin-1-yl)methyl)piperidin-1-yl)phenyl)piperidine-2,6-dione], the DC50 under setting [2] was 1.5 nM. For the same molecule, under setting [1], the Dmax amounted to 74%.

For `CC1(C)CCc2c(-c3cc4ccc(C(=O)N5CCC(CN6CCC(c7ccc(C8CCC(=O)NC8=O)cc7)CC6)CC5)cc4[nH]3)n[nH]c2C1` (centres unmarked) [Compound 39, 3-(4-(1-((1-(2-(6,6-dimethyl-4,5,6,7-tetrahydro-1H-indazol-3-yl)-1H-indole-6-carbonyl)piperidin-4-yl)methyl)piperidin-4-yl)phenyl)piperidine-2,6-dione], the 50% degradation concentration (DC50) under setting [2] came out at 0.09 nM. The Dmax under setting [1] stood at 82%.

Values taken from patent US20230158151A1 (NURIX THERAPEUTICS, INC., priority 2021, published 2023).
